For one molecule, EC50 results are on record in patent publication US20080175903A1, “Treatment of anxiety with eszopiclone” (Sepracor Inc., priority 2006, published 2008).

Experiment in all cases: Potentiation of GABA evoked currents, recombinant GABA-A receptors in Xenopus oocytes, two-electrode voltage clamp
Holding throughout (type): cell-based

Assay [1] concerns the target T1, α3-containing GABAA receptors (human α3, β3, γ2L) (Homo sapiens, UniProt P18507+P34903).
T1 construct: expressed in transfected cells; host or cells: Xenopus oocytes (cDNA injected, alpha:beta:gamma 1:1:3)
How it is done: (§1) FIG. 2 is a plot showing the concentration-dependent potentiation of GABA evoked currents by (S)-zopiclone. For all experiments, human cDNA encoding each subunit was injected in oocytes in a stoichiometry of 1:1:3 (alpha, beta, gamma subunits). Approximately 24 hours later, GABA evoked currents (using a concentration of GABA equal to the EC10) were recorded from oocytes using a two-electrode voltage clamp on a robotic oocyte platform and a constant voltage of −80 mV. GABA was applied to the oocytes via a perfusion system for 20 seconds and then removed. An inward deflection of the current trace was recorded and subsequently compared to the responses resulting from applying the same concentration of GABA plus varying concentrations of the test compound ((S)-zopiclone). A doubling of the GABA evoked current is represented as a potentiation ratio of 1.0.
(§2) The GABA-A receptor is gated by GABA, and ligands at the benzodiazepine site potentiate GABA-evoked currents. It is well-established in the scientific literature that classical benzodiazepines potentiate GABA evoked chloride currents through GABA-A receptors. The efficacies of classical benzodiazepines can be described as “full modulators” referring to their ability to increase the chloride currents induced by sub-maximal GABA concentrations. The action of (S)-zopiclone on GABA-A receptors was evaluated by examining their effects on electrophysiological recordings in a recombinant expression system.
(§3) Recombinant GABA-A receptors were expressed in Xenopus oocytes by injecting cDNA encoding the human β3, γ2L, and each of α1, α2, α3, or α5 subunits in turn to assemble functional channels. Channel activity was measured using two-electrode voltage clamp in whole cell configuration on a robotic workstation. […] The potentiation ratio was then measured as the fold-increase in current generated by a (S)-zopiclone plus an EC10 of GABA, compared to the current generated by just the EC10 of GABA alone. These potentiation ratios were measured at a range of (S)-zopiclone concentrations to generate a subsequent concentration response curve at each of the subtypes using between 2 and 7 oocytes. […]
(§4) For all experiments, human cDNA encoding each subunit was injected in oocytes in a stoichiometry of 1:1:3 (alpha, beta, gamma subunits). Approximately 24 hours later, GABA evoked currents (using a concentration of GABA equal to the EC10) were recorded from oocytes using a two-electrode voltage clamp on a robotic oocyte platform and a constant voltage of −80 mV. […] An inward deflection of the current trace was recorded and subsequently compared to the responses resulting from applying the same concentration of GABA plus varying concentrations of the test compound [(S)-zopiclone]. […]

In assay [2] the target is T2, α2-containing GABAA receptors (human α2, β3, γ2L) (Homo sapiens, UniProt P18507+P47869).
T2 construct: expressed in transfected cells; host or cells: Xenopus oocytes (cDNA injected, alpha:beta:gamma 1:1:3)
T2 sequence (P47869 29-451): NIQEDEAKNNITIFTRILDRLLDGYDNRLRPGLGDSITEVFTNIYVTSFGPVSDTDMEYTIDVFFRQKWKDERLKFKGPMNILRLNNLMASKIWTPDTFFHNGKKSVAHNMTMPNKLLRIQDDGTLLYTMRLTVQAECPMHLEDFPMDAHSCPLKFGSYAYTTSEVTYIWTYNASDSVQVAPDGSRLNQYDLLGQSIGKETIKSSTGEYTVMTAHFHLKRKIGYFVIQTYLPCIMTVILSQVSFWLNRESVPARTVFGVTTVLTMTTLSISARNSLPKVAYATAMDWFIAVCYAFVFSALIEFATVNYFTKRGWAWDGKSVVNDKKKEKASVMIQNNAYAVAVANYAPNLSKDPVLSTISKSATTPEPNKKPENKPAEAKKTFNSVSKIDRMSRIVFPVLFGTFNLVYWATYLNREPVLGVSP
T2 sequence (P28472 26-473 partner): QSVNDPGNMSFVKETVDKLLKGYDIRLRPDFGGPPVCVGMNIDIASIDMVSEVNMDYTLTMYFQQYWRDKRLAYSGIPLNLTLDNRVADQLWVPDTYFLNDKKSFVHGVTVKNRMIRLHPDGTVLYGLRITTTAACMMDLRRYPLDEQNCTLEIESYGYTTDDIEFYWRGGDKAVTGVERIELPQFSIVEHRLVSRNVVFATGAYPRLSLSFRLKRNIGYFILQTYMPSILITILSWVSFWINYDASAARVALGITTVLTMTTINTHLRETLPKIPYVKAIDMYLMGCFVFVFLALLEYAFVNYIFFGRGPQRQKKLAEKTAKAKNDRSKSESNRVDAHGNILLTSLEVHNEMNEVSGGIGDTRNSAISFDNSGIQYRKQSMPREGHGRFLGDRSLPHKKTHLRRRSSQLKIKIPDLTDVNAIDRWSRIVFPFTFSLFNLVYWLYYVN
T2 sequence (P18507 40-475): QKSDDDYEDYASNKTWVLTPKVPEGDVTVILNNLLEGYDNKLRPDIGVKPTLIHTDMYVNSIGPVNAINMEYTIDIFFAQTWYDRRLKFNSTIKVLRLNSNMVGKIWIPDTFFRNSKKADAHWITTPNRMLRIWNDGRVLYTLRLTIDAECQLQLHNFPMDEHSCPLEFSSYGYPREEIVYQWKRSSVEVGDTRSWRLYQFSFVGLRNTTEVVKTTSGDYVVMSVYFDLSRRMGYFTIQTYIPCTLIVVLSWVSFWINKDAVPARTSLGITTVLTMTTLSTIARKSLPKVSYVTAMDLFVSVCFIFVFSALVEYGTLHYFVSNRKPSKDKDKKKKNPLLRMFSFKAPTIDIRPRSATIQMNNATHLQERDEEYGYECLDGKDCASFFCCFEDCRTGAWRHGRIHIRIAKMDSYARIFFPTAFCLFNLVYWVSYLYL
How it is done:
as §1, §2, §3, §4

Assay [3] concerns the target T3, α1-containing GABAA receptors (human α1, β3, γ2L) (Homo sapiens, UniProt P14867+P18507).
T3 construct: expressed in transfected cells; host or cells: Xenopus oocytes (cDNA injected, alpha:beta:gamma 1:1:3)
As for the experimental part:
as §1, §2, §3, §4

Assay [4] concerns the target T4, α5-containing GABAA receptors (human α5, β3, γ2L) (Homo sapiens, UniProt P18507+P31644).
T4 construct: expressed in transfected cells; host or cells: Xenopus oocytes (cDNA injected, alpha:beta:gamma 1:1:3)
How it is done: as §1, §2, §3, §4

T1 sequence (P34903 29-492): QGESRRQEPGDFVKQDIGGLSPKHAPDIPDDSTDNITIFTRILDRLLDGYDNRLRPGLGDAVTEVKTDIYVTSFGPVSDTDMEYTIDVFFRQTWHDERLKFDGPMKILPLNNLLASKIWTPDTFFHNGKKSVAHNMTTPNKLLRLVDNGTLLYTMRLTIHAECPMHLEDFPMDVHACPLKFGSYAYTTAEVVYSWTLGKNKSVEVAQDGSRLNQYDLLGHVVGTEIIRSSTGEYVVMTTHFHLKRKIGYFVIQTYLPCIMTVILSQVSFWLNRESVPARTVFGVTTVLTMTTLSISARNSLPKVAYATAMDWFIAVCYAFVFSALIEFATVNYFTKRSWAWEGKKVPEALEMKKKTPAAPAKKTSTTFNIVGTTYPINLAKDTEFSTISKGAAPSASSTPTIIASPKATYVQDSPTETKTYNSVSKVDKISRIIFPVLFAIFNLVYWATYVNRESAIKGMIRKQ
T1 sequence (P28472 26-473 partner): as the sequence (P28472 26-473 partner) above
T1 sequence (P18507 40-475): as the sequence (P18507 40-475) above
T3 sequence (P14867 28-456): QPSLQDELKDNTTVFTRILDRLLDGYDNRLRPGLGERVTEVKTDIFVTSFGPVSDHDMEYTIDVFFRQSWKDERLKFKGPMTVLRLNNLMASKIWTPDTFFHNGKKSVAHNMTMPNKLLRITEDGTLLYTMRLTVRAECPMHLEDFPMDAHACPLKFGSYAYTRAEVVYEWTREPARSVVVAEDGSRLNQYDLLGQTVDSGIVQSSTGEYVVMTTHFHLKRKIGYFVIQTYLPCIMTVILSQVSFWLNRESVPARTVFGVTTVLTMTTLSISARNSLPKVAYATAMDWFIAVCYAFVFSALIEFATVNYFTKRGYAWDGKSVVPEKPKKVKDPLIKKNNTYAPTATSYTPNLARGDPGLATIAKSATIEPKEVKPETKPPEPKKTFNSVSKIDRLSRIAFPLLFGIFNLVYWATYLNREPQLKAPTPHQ
T3 sequence (P28472 26-473 partner): as the sequence (P28472 26-473 partner) above
T3 sequence (P18507 40-475): as the sequence (P18507 40-475) above
T4 sequence (P31644 32-462): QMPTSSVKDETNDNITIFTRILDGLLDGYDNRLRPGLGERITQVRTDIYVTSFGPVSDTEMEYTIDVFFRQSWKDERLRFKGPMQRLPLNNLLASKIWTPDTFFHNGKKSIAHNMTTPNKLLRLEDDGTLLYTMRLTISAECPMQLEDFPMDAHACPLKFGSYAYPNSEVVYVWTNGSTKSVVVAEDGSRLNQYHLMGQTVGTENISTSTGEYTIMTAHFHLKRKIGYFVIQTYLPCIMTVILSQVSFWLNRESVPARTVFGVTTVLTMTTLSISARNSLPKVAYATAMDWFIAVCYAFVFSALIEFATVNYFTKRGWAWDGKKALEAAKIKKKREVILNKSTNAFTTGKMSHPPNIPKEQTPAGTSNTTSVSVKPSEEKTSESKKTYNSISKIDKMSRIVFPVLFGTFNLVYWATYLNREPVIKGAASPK
T4 sequence (P28472 26-473 partner): as the sequence (P28472 26-473 partner) above
T4 sequence (P18507 40-475): as the sequence (P18507 40-475) above

As usually defined, the EC50 is the concentration that produces a half-maximal response. Turning to `CN1CCN(C(=O)O[C@H]2c3nccnc3C(=O)N2c2ccc(Cl)cn2)CC1` [Eszopiclone, (+)-(5S)-6-(chloropyridin-2-yl)-7-oxo-6,7-dihydro-5H-pyrrolo[3,4-b]pyrazin-5-yl 4-methyl-piperazine-1-carboxylate], the EC50 in assay [1] came to 250 nM; in assay [2] it was 100 nM; in assay [3] it was 30 nM; in assay [4], 40 nM.
